Laboratory results as given in US12539292B2, “BRM targeting compounds and associated methods of use” (Arvinas Operations, Inc., priority 2018, dated 2026).

Molecular target: T1, BRM (Homo sapiens, UniProt P51531)
T1 construct: In-Cell Western Screen of BRM Degradation in SW1573 Cells; endogenous in cells; host or cells: SW1573
Test: In-cell Western screen of BRM degradation in SW1573 cells (Dmax and DC50)
Format: cell-based
Details: BRM degradation, SW1573 cells; for DC50: read-out: DC50; for Dmax: tested at the top concentration of between 0.3 and 10 μM, read-out: Dmax (%) (% degraded)
Procedure, shortened: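 SW1573, overnight cpd exposure (18-20 h), 0.1% DMSO final. PFA fix, 0.5% Triton permeabilization, block; IR secondaries at 800/680 nm. Odyssey read → Dmax, DC50.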

T1 sequence (P51531 whole entry): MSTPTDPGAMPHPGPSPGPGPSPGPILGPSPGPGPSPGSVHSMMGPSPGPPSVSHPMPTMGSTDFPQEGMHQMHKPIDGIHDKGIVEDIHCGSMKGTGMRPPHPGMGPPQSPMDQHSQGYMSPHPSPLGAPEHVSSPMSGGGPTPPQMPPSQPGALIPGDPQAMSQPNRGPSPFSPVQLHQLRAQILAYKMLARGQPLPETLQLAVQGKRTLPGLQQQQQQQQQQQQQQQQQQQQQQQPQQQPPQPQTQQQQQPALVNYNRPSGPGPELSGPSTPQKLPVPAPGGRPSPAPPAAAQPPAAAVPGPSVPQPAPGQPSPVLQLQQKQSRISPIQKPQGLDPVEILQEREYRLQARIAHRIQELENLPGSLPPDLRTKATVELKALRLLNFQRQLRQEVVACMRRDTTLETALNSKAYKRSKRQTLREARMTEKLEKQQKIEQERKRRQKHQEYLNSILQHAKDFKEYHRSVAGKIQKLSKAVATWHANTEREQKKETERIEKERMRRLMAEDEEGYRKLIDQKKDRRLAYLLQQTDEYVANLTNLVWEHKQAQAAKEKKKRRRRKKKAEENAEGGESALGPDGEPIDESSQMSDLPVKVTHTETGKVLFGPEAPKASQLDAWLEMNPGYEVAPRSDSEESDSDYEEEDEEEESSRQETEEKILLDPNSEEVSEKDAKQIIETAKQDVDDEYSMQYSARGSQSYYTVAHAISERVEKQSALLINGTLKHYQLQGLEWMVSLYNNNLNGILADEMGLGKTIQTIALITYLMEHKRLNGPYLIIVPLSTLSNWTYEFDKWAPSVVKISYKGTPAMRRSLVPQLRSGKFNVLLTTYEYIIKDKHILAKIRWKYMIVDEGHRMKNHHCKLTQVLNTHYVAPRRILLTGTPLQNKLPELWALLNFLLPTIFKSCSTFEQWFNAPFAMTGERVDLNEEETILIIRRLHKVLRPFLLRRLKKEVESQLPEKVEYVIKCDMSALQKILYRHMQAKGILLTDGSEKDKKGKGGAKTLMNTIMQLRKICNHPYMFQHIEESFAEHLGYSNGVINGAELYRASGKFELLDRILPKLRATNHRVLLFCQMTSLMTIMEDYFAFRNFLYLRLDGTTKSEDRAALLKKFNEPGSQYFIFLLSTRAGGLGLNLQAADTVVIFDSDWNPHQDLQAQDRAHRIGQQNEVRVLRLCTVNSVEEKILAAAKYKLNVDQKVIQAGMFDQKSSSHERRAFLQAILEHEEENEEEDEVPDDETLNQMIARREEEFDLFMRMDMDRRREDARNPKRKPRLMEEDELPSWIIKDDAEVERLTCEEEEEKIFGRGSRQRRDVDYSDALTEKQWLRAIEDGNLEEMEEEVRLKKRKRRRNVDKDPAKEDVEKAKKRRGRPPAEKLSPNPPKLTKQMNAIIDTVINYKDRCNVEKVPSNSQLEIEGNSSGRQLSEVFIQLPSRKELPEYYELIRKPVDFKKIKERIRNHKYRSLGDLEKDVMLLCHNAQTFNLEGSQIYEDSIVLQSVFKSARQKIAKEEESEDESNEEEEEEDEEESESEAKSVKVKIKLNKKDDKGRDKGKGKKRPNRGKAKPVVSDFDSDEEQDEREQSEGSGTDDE

Structure (SMILES) | DC50 [nM] | Dmax [%]
Cc1ncsc1-c1ccc([C@H](C)NC(=O)[C@@H]2C[C@@H](O)CN2C(=O)[C@H](c2cc(N3CCN(CCN4CCC(O[C@H]5C[C@H](Oc6cc(N7C8CCC7CN(c7cc(-c9ccccc9O)nnc7N)C8)ccn6)C5)CC4)CC3)no2)C(C)C)cc1 [compound 195, (2S,4R)-1-((2S)-2-(3-(4-(2-(4-((1r,3r)-3-((4-(3-(3-amino-6-(2-hydroxyphenyl)pyridazin-4-yl)-3,8-diazabicyclo[3.2.1]octan-8-yl)pyridin-2-yl)oxy)cyclobutoxy)piperidin-1-yl)ethyl)piperazin-1-yl)isoxazol-5-yl)-3-methylbutanoyl)-4-hydroxy-N-((S)-1-(4-(4-methylthiazol-5-yl)phenyl)ethyl)pyrrolidine-2-carboxamide] | > 30 | > 75
Cc1ncsc1-c1ccc([C@H](C)NC(=O)[C@@H]2C[C@@H](O)CN2C(=O)[C@H](c2cc(CCCOCCOCCOCCn3cc(-c4cc(-c5ccccc5O)nnc4N)cn3)no2)C(C)C)cc1 [compound 196, (2S,4R)-1-((S)-2-(3-(3-(2-(2-(2-(4-(3-amino-6-(2-hydroxyphenyl)pyridazin-4-yl)-1H-pyrazol-1-yl)ethoxy)ethoxy)ethoxy)propyl)isoxazol-5-yl)-3-methylbutanoyl)-4-hydroxy-N-((S)-1-(4-(4-methylthiazol-5-yl)phenyl)ethyl)pyrrolidine-2-carboxamide] | > 30 | > 75
Cc1ncsc1-c1ccc([C@H](C)NC(=O)[C@@H]2C[C@@H](O)CN2C(=O)[C@H](c2cc(OCCN3CCN(CCC#CCn4cc(-c5cc(-c6ccccc6O)nnc5N)cn4)CC3)no2)C(C)C)cn1 [compound 197, (2S,4R)-1-((S)-2-(3-(2-(4-(5-(4-(3-amino-6-(2-hydroxyphenyl)pyridazin-4-yl)-1H-pyrazol-1-yl)pent-3-yn-1-yl)piperazin-1-yl)ethoxy)isoxazol-5-yl)-3-methylbutanoyl)-4-hydroxy-N-((S)-1-(6-(4-methylthiazol-5-yl)pyridin-3-yl)ethyl)pyrrolidine-2-carboxamide] | > 30 | –
Cc1ncsc1-c1ccc([C@H](C)NC(=O)[C@@H]2C[C@@H](O)CN2C(=O)[C@H](c2onc(OCCN3CCN(CCOc4cc(N5C6CCC5CN(c5cc(-c7ccccc7O)nnc5N)C6)ccn4)CC3)c2F)C(C)C)cc1 [compound 198, (2S,4R)-1-((2S)-2-(3-(2-(4-(2-((4-(3-(3-amino-6-(2-hydroxyphenyl)pyridazin-4-yl)-3,8-diazabicyclo[3.2.1]octan-8-yl)pyridin-2-yl)oxy)ethyl)piperazin-1-yl)ethoxy)-4-fluoroisoxazol-5-yl)-3-methylbutanoyl)-4-hydroxy-N-((S)-1-(4-(4-methylthiazol-5-yl)phenyl)ethyl)pyrrolidine-2-carboxamide] | 10 to 30 | > 75
Cc1ncsc1-c1ccc([C@H](CO)NC(=O)[C@@H]2C[C@@H](O)CN2C(=O)[C@@H](c2cc(OCCN3CCC(O[C@H]4C[C@H](Oc5cc(N6C7CCC6CN(c6cc(-c8ccccc8O)nnc6N)C7)ccn5)C4)CC3)no2)C(C)C)cc1 [compound 199, (2S,4R)-1-((2R)-2-(3-(2-(4-((1r,3R)-3-((4-(3-(3-amino-6-(2-hydroxyphenyl)pyridazin-4-yl)-3,8-diazabicyclo[3.2.1]octan-8-yl)pyridin-2-yl)oxy)cyclobutoxy)piperidin-1-yl)ethoxy)isoxazol-5-yl)-3-methylbutanoyl)-4-hydroxy-N-((R)-2-hydroxy-1-(4-(4-methylthiazol-5-yl)phenyl)ethyl)pyrrolidine-2-carboxamide] | < 2.5 | > 75
Cc1ncsc1-c1ccc([C@H](CO)NC(=O)[C@@H]2C[C@@H](O)CN2C(=O)[C@H](c2cc(OCCN3CCC(O[C@H]4C[C@H](Oc5cc(N6C7CCC6CN(c6cc(-c8ccccc8O)nnc6N)C7)ccn5)C4)CC3)no2)C(C)C)cc1 [compound 200, (2S,4R)-1-((2S)-2-(3-(2-(4-((1r,3S)-3-((4-(3-(3-amino-6-(2-hydroxyphenyl)pyridazin-4-yl)-3,8-diazabicyclo[3.2.1]octan-8-yl)pyridin-2-yl)oxy)cyclobutoxy)piperidin-1-yl)ethoxy)isoxazol-5-yl)-3-methylbutanoyl)-4-hydroxy-N-((R)-2-hydroxy-1-(4-(4-methylthiazol-5-yl)phenyl)ethyl)pyrrolidine-2-carboxamide] | 2.5 to 10 | > 75
COc1cc(-c2scnc2C)ccc1[C@H](C)NC(=O)[C@@H]1C[C@@H](O)CN1C(=O)[C@H](c1cc(OCCN2CCC(O[C@H]3C[C@H](Oc4cc(N5C6CCC5CN(c5cc(-c7ccccc7O)nnc5N)C6)ccn4)C3)CC2)no1)C(C)C [compound 201, (2S,4R)-1-((2S)-2-(3-(2-(4-((1r,3S)-3-((4-(3-(3-amino-6-(2-hydroxyphenyl)pyridazin-4-yl)-3,8-diazabicyclo[3.2.1]octan-8-yl)pyridin-2-yl)oxy)cyclobutoxy)piperidin-1-yl)ethoxy)isoxazol-5-yl)-3-methylbutanoyl)-4-hydroxy-N-((S)-1-(2-methoxy-4-(4-methylthiazol-5-yl)phenyl)ethyl)pyrrolidine-2-carboxamide] | 10 to 30 | > 75
COc1cc(-c2scnc2C)ccc1[C@H](C)NC(=O)[C@@H]1C[C@@H](O)CN1C(=O)[C@@H](c1cc(OCCN2CCC(O[C@H]3C[C@H](Oc4cc(N5C6CCC5CN(c5cc(-c7ccccc7O)nnc5N)C6)ccn4)C3)CC2)no1)C(C)C [compound 202, (2S,4R)-1-((2R)-2-(3-(2-(4-((1r,3R)-3-((4-(3-(3-amino-6-(2-hydroxyphenyl)pyridazin-4-yl)-3,8-diazabicyclo[3.2.1]octan-8-yl)pyridin-2-yl)oxy)cyclobutoxy)piperidin-1-yl)ethoxy)isoxazol-5-yl)-3-methylbutanoyl)-4-hydroxy-N-((S)-1-(2-methoxy-4-(4-methylthiazol-5-yl)phenyl)ethyl)pyrrolidine-2-carboxamide] | < 2.5 | > 75
CC(C)[C@@H](C(=O)N1C[C@H](O)C[C@H]1C(=O)N[C@@H](C)c1ccc(C#N)cc1)c1cc(OCCN2CCC(O[C@H]3C[C@H](Oc4cc(N5C6CCC5CN(c5cc(-c7ccccc7O)nnc5N)C6)ccn4)C3)CC2)no1 [compound 203, (2S,4R)-1-((2R)-2-(3-(2-(4-((1r,3R)-3-((4-(3-(3-amino-6-(2-hydroxyphenyl)pyridazin-4-yl)-3,8-diazabicyclo[3.2.1]octan-8-yl)pyridin-2-yl)oxy)cyclobutoxy)piperidin-1-yl)ethoxy)isoxazol-5-yl)-3-methylbutanoyl)-N-((S)-1-(4-cyanophenyl)ethyl)-4-hydroxypyrrolidine-2-carboxamide] | < 2.5 | > 75
CC(C)[C@H](C(=O)N1C[C@H](O)C[C@H]1C(=O)N[C@@H](C)c1ccc(C#N)cc1)c1cc(OCCN2CCC(O[C@H]3C[C@H](Oc4cc(N5C6CCC5CN(c5cc(-c7ccccc7O)nnc5N)C6)ccn4)C3)CC2)no1 [compound 204, (2S,4R)-1-((2S)-2-(3-(2-(4-((1r,3S)-3-((4-(3-(3-amino-6-(2-hydroxyphenyl)pyridazin-4-yl)-3,8-diazabicyclo[3.2.1]octan-8-yl)pyridin-2-yl)oxy)cyclobutoxy)piperidin-1-yl)ethoxy)isoxazol-5-yl)-3-methylbutanoyl)-N-((S)-1-(4-cyanophenyl)ethyl)-4-hydroxypyrrolidine-2-carboxamide] | > 30 | > 75
Cc1ncsc1-c1ccc([C@H](C)NC(=O)[C@@H]2C[C@@H](O)CN2C(=O)[C@H](c2cc(OCCN3CCN(CCCCN4CCOC5(CCN(c6cc(-c7ccccc7O)nnc6N)CC5)C4)CC3)no2)C(C)C)cc1 [compound 205, (2S,4R)-1-((S)-2-(3-(2-(4-(4-(9-(3-amino-6-(2-hydroxyphenyl)pyridazin-4-yl)-1-oxa-4,9-diazaspiro[5.5]undecan-4-yl)butyl)piperazin-1-yl)ethoxy)isoxazol-5-yl)-3-methylbutanoyl)-4-hydroxy-N-((S)-1-(4-(4-methylthiazol-5-yl)phenyl)ethyl)pyrrolidine-2-carboxamide] | > 30 | > 75
Cc1ncsc1-c1ccc([C@H](C)NC(=O)[C@@H]2C[C@@H](O)CN2C(=O)[C@H](c2cc(OC/C=C/c3ccc(O[C@H]4C[C@H](Oc5cc(N6C7CCC6CN(c6cc(-c8ccccc8O)nnc6N)C7)ccn5)C4)cn3)no2)C(C)C)cn1 [compound 206, (2S,4R)-1-((2S)-2-(3-(((E)-3-(5-((1r,3S)-3-((4-(3-(3-amino-6-(2-hydroxyphenyl)pyridazin-4-yl)-3,8-diazabicyclo[3.2.1]octan-8-yl)pyridin-2-yl)oxy)cyclobutoxy)pyridin-2-yl)allyl)oxy)isoxazol-5-yl)-3-methylbutanoyl)-4-hydroxy-N-((S)-1-(6-(4-methylthiazol-5-yl)pyridin-3-yl)ethyl)pyrrolidine-2-carboxamide] | 10 to 30 | > 75
Cc1ncsc1-c1ccc([C@H](C)NC(=O)[C@@H]2C[C@@H](O)CN2C(=O)[C@@H](c2cc(OC/C=C/c3ccc(O[C@H]4C[C@H](Oc5cc(N6C7CCC6CN(c6cc(-c8ccccc8O)nnc6N)C7)ccn5)C4)cn3)no2)C(C)C)cn1 [compound 207, (2S,4R)-1-((2R)-2-(3-(((E)-3-(5-((1r,3R)-3-((4-(3-(3-amino-6-(2-hydroxyphenyl)pyridazin-4-yl)-3,8-diazabicyclo[3.2.1]octan-8-yl)pyridin-2-yl)oxy)cyclobutoxy)pyridin-2-yl)allyl)oxy)isoxazol-5-yl)-3-methylbutanoyl)-4-hydroxy-N-((S)-1-(6-(4-methylthiazol-5-yl)pyridin-3-yl)ethyl)pyrrolidine-2-carboxamide] | < 2.5 | > 75
